According to the NIST ThermoML archive (doi:10.1016/j.jct.2011.07.018):

Assay: excess molar enthalpy (molar enthalpy of mixing); xn = mol fraction of the nth substance listed
Conditions: 298.15 K, 101 kPa, Liquid, isothermal titration calorimeter

CCCCCC(=O)O [hexanoic acid] + CN(C)C=O
Conditions | excess molar enthalpy [kcal/mol]
x2 = 0.048 | -0.0576
x2 = 0.092 | -0.11
x2 = 0.132 | -0.158
x2 = 0.169 | -0.202
x2 = 0.203 | -0.243
x2 = 0.24 | -0.288
x2 = 0.274 | -0.328
x2 = 0.304 | -0.363
x2 = 0.333 | -0.394
x2 = 0.359 | -0.42
x2 = 0.383 | -0.442
x2 = 0.412 | -0.467
x2 = 0.439 | -0.484
x2 = 0.464 | -0.496
x2 = 0.486 | -0.503
x2 = 0.502 | -0.506
x2 = 0.516 | -0.506
x2 = 0.53 | -0.505
x2 = 0.543 | -0.503
x2 = 0.556 | -0.499
x2 = 0.568 | -0.494
x2 = 0.579 | -0.489
x2 = 0.589 | -0.483
x2 = 0.602 | -0.475
x2 = 0.613 | -0.467
x2 = 0.625 | -0.458
x2 = 0.635 | -0.449
x2 = 0.645 | -0.44
x2 = 0.656 | -0.43
x2 = 0.666 | -0.42
x2 = 0.676 | -0.409
x2 = 0.685 | -0.4
x2 = 0.694 | -0.39
x2 = 0.702 | -0.381
x2 = 0.71 | -0.372
x2 = 0.718 | -0.363
x2 = 0.726 | -0.352
x2 = 0.735 | -0.342
x2 = 0.743 | -0.332
x2 = 0.75 | -0.323
x2 = 0.757 | -0.314
x2 = 0.764 | -0.306
x2 = 0.77 | -0.298
x2 = 0.776 | -0.291
x2 = 0.782 | -0.283
x2 = 0.789 | -0.275
x2 = 0.794 | -0.268
x2 = 0.799 | -0.261
x2 = 0.812 | -0.241
x2 = 0.824 | -0.226
x2 = 0.836 | -0.21
x2 = 0.849 | -0.194
x2 = 0.862 | -0.177
x2 = 0.875 | -0.159
x2 = 0.889 | -0.142
x2 = 0.903 | -0.124
x2 = 0.916 | -0.107
x2 = 0.929 | -0.0906
x2 = 0.942 | -0.0736
x2 = 0.956 | -0.0557
x2 = 0.97 | -0.0373
x2 = 0.985 | -0.0186
